Test results from US20200368247A1, “CENICRIVIROC FOR THE TREATMENT OF FIBROSIS” (Tobira Therapeutics, Inc., priority 2014, published 2020).

How the values were obtained:
HIV-1 = experiment: Study 202 Phase 2b, virologic response (HIV-1 RNA <50 copies/mL, FDA Snapshot), with FTC/TDF
Source text: Subjects with a history of HIV-2, hepatitis B and/or C, cirrhosis of the liver or any known active or chronic active liver disease were excluded from the study.
The primary efficacy endpoint was virologic response at Week 24, defined as HIV-1 RNA <50 copies/mL using the FDA Snapshot Algorithm.

[1] = Study 202 treatment-emergent laboratory abnormalities (DAIDS grade); assay type: in vivo, human
Source text: The 12th subject (Subject 42001) had 2 consecutive CPK elevations (Grade 3 followed by Grade 4) that returned to normal values while continuing treatment at a subsequent visit. None of the CPK elevations were associated with clinical symptoms; no subjects discontinued due to CPK elevations and there were no differences in AEs related to musculoskeletal disorders between the CVC and EFV arms.
The number of subjects with graded treatment-emergent laboratory abnormalities in selected liver parameters of interest is shown in Table 34. No Grade 4 ALT or AST elevations were observed. Except for one Grade 3 AST elevation, all ALT and AST elevations were Grade 1 or Grade 2. […] All abnormalities in bilirubin were Grade 1 or Grade 2. […]

[2] = All CVC (N = 115), EFV (N = 28)
[3] = All CVC (N = 115), EFV (N = 28), through Week 48
[4] = CVC 100 mg (N = 38), through Week 48

SMILES: CCCCOCCOc1ccc(-c2ccc3c(c2)/C=C(/C(=O)Nc2ccc([S@@+]([O-])Cc4cncn4CCC)cc2)CCCN3CC(C)C)cc1 [CVC, (S)-8-[4-(2-Butoxyethoxy)phenyl]-1-isobutyl-N-(4-{[(1-propyl-1H-imidazol-5-yl)methyl]sulfinyl}phenyl)-1,2,3,4-tetrahydro-1-benzazocine-5-carboxamide]
- subjects who prematurely discontinued the study (HIV-1; CVC 100 mg arm): 29%
- subjects with virologic success (HIV-1 RNA <50 copies/mL) (HIV-1; CVC 100 mg, Week 24): 76%
- subjects with virologic success (HIV-1 RNA <50 copies/mL) (HIV-1; CVC 100 mg, Week 48): 68%
- subjects who prematurely discontinued the study (HIV-1; CVC 200 mg arm): 27%
- subjects with virologic success (HIV-1 RNA <50 copies/mL) (HIV-1; CVC 200 mg, Week 24): 73%
- subjects with virologic success (HIV-1 RNA <50 copies/mL) (HIV-1; CVC 200 mg, Week 48): 64%
- Any graded (Grade 1-4) laboratory abnormality, % ([1]; All CVC): 92%
- Worst Grade 1 laboratory abnormality, % ([1]; All CVC): 32%
- Worst Grade 2 laboratory abnormality, % ([1]; All CVC): 43%
- Worst Grade 3 laboratory abnormality, % ([1]; All CVC): 11%
- Worst Grade 4 laboratory abnormality, % ([1]; All CVC): 5%
- ALT abnormality, worst Grade 1 [1, 2]: 10 (9%) n (%)
- ALT abnormality, worst Grade 2 [1, 2]: 5 (4%) n (%)
- ALT abnormality, worst Grade 3 [1, 2]: 0 n (%)
- ALT abnormality, worst Grade 4 [1, 2]: 0 n (%)
- AST abnormality, worst Grade 1 [1, 2]: 14 (12%) n (%)
- AST abnormality, worst Grade 2 [1, 2]: 6 (5%) n (%)
- AST abnormality, worst Grade 3 [1, 2]: 1 (< %) n (%)
- AST abnormality, worst Grade 4 [1, 2]: 0 n (%)
- Alanine aminotransferase (ALT) abnormality, any worst grade [1, 2]: 15 (13%) n (%)
- Aspartate aminotransferase (AST) abnormality, any worst grade [1, 2]: 21 (18%) n (%)
- Bilirubin abnormality, any worst grade [1, 2]: 7 (6%) n (%)
- Bilirubin abnormality, worst Grade 1 [1, 2]: 3 (3%) n (%)
- Bilirubin abnormality, worst Grade 2 [1, 2]: 4 (3%) n (%)
- Bilirubin abnormality, worst Grade 3 [1, 2]: 0 n (%)
- Bilirubin abnormality, worst Grade 4 [1, 2]: 0 n (%)
- AST increased, Grade 3 [1, 3]: 1 (<1%) n (%)
- AST increased, Grade 4 [1, 3]: 0 n (%)
- Any Grade 3 laboratory abnormality [1, 3]: 13 (11%) n (%)
- Any Grade 3 or Grade 4 laboratory abnormality [1, 3]: 19 (17%) n (%)
- Any Grade 4 laboratory abnormality [1, 3]: 6 (5%) n (%)
- Aspartate aminotransferase (AST) increased (Grade 3 or 4) [1, 3]: 1 (<1%) n (%)
- CPK increased, Grade 3 [1, 3]: 8 (7%) n (%)
- CPK increased, Grade 4 [1, 3]: 4 (3%) n (%)
- Creatine phosphokinase (CPK) increased (Grade 3 or 4) [1, 3]: 12 (10%) n (%)
- Fibrinogen decreased (Grade 3 or 4) [1, 3]: 2 (2%) n (%)
- Fibrinogen decreased, Grade 3 [1, 3]: 2 (2%) n (%)
- Fibrinogen decreased, Grade 4 [1, 3]: 0 n (%)
- Hemoglobin decreased (Grade 3 or 4) [1, 3]: 1 (<1%) n (%)
- Hemoglobin decreased, Grade 3 [1, 3]: 0 n (%)
- Hemoglobin decreased, Grade 4 [1, 3]: 1 (<1%) n (%)
- Neutrophils decreased (Grade 3 or 4) [1, 3]: 2 (2%) n (%)
- Neutrophils decreased, Grade 3 [1, 3]: 2 (2%) n (%)
- Neutrophils decreased, Grade 4 [1, 3]: 0 n (%)
- Phosphate decreased (Grade 3 or 4) [1, 3]: 4 (3%) n (%)
- Phosphate decreased, Grade 3 [1, 3]: 4 (3%) n (%)
- Phosphate decreased, Grade 4 [1, 3]: 0 n (%)
- Any graded (Grade 1-4) laboratory abnormality, % ([1]; CVC 100 mg): 88%
- Worst Grade 1 laboratory abnormality, % ([1]; CVC 100 mg): 36%
- Worst Grade 2 laboratory abnormality, % ([1]; CVC 100 mg): 40%
- Worst Grade 3 laboratory abnormality, % ([1]; CVC 100 mg): 7%
- Worst Grade 4 laboratory abnormality, % ([1]; CVC 100 mg): 5%
- AST increased, Grade 4 [1, 4]: 0 n (%)
- Any Grade 3 or Grade 4 laboratory abnormality [1, 4]: 7 (12%) n (%)
- Any Grade 4 laboratory abnormality [1, 4]: 3 (5%) n (%)
- Aspartate aminotransferase (AST) increased (Grade 3 or 4) [1, 4]: 1 (2%) n (%)
- CPK increased, Grade 4 [1, 4]: 1 (2%) n (%)
- Creatine phosphokinase (CPK) increased (Grade 3 or 4) [1, 4]: 3 (5%) n (%)
- Fibrinogen decreased (Grade 3 or 4) [1, 4]: 0 n (%)
- Fibrinogen decreased, Grade 3 [1, 4]: 0 n (%)
- Fibrinogen decreased, Grade 4 [1, 4]: 0 n (%)
- Hemoglobin decreased (Grade 3 or 4) [1, 4]: 1 (2%) n (%)
- Hemoglobin decreased, Grade 3 [1, 4]: 0 n (%)
- Hemoglobin decreased, Grade 4 [1, 4]: 1 (2%) n (%)
- Neutrophils decreased (Grade 3 or 4) [1, 4]: 2 (3%) n (%)
- Neutrophils decreased, Grade 3 [1, 4]: 2 (3%) n (%)
- Neutrophils decreased, Grade 4 [1, 4]: 0 n (%)
- Phosphate decreased (Grade 3 or 4) [1, 4]: 2 (3%) n (%)
- Phosphate decreased, Grade 3 [1, 4]: 2 (3%) n (%)
- Phosphate decreased, Grade 4 [1, 4]: 0 n (%)
- ALT abnormality, worst Grade 1 ([1]; CVC 100 mg (N = 58)): 4 (7%) n (%)
- ALT abnormality, worst Grade 2 ([1]; CVC 100 mg (N = 58)): 3 (5%) n (%)
- ALT abnormality, worst Grade 3 ([1]; CVC 100 mg (N = 58)): 0 n (%)
